We go through two compounds from US10407445B2, “Hepatitis C virus inhibitors” (ENANTA PHARMACEUTICALS, INC., priority 2013, dated 2019).

As usually defined, the EC50 is the concentration giving half of the maximal effect.

Assay [1] concerns HCV genotype 1a replicon, NS5A K24G. Briefly: Transient replication assay, GT1a NS5A K24G. Format: cell-based. To be noted: Hepatitis C virus.
The next assay relates to GT1a-H77 replicon. Briefly: Stable replicon assay, comparison to daclatasvir, GT1a-H77. Format: cell-based. To be noted: Hepatitis C virus; Replicon GT1a-H77, NS5A genotype 1a. As for the experimental part: Stable HCV replicon cell lines were grown in complete media (Dulbecco's modified Eagle medium [DMEM], 2 mM L-glutamine, 0.1 mM essential amino acids, 1 mM sodium pyruvate, 10% fetal bovine serum) with the addition 500 μg/ml […] (G418). Huh7-lunet cells were maintained in the same medium without the addition of G418. Cells were routinely passaged at a dilution of 1:5 two times per week. For stable replicon assays (GT1a-H77, GT1b-Con1, GT2a-JFH, GT2a-J6, GT2a-2b-MD2b, GT2a-2b-J8, GT2a-3a-S52, GT3a-552, GT4a-ED43, GT2a-5a-SA13, GT2a-6a-EUKH2, GT2a-6a-HK6a, and GT2a-7a-QC69), an 8-point 3-fold or half-log dilution series of compound was transferred into three replica 96-well plates containing 1×10^4 cells per well in phenol red-free complete media without G418. For the transient replication assay, Huh7-lunet cells in ice-cold phosphate buffered saline (PBS) were electroporated (Bio-Rad Gene pulser: 950 uF, 270V) with 10 μg purified in vitro transcribed HCV replicon RNA, followed by resuspension in phenol red-free complete media without G418 and plating (1×10^4 cells in 200 μL media/well) into three replica 96-well plates prior to compound addition (1 μl compound per well). For stable and transient replicon assays, luciferase activity of compound-treated cells was measured relative to DMSO-treated cells after 72 h incubation using RENILLA-GLO™ Luciferase Assay (Promega). […]
In general terms: A replicon is a self-replicating genome or part of one, used to study replication in cells.

In assay [2] the test system is HCV genotype 1b replicon Huh7-lunet cells. Briefly: Resistance barrier analysis in HCV genotype 1b replicon cells (crystal violet staining). It is filed as cell-based, Hepatitis C virus. The settings on record: 2×EC50, 3 weeks in the presence of G418. Here is the method:
Stable HCV genotype 1b replicon Huh7-lunet cells were plated in 100 mm cell culture dishes (1.5×10^5 and 3×10^5 cells/dish for DMSO control and compound treated cells, respectively) and incubated for 24 hr (37° C., 5% CO2) prior to compound addition. Compounds (solubilized in DMSO) were prepared in complete media (0.5% DMSO final) and added to cells. Cells were maintained in the presence of compound (or DMSO) and G418 (500 μg/mL) for 3 weeks with media replacement two times per week. Cells were then fixed (4% paraformaldehyde, 30 min at room temperature) and stained (0.5% crystal violet/25% methanol, 20 min room temperature) to allow visualization of surviving cells. Plates were then washed with water to remove excess stain and left to air dry overnight prior to imaging (BioRad Gel Doc XR+Molecular Imager).
FIG. 1 illustrates comparison of a compound of the invention to daclatasvir in a test that provides a qualitative indication of the occurrence of resistance. […] The control plate, with DMSO alone (no compound 16 or daclatasvir), is almost completely opaque.

As to `COC(=O)N[C@H](C(=O)N1C[C@]2(CCCOC2)C[C@H]1c1ncc(-c2ccc(-c3ccc4c(ccc5nc([C@@H]6C[C@@H]7CCC[C@@H]7N6C(=O)[C@@H](NC(=O)OC)C(C)C)[nH]c54)c3)cc2)[nH]1)C(C)C` [Compound 16], the results for the EC50 (in assay [1]; in the assay with GT1a-H77 replicon) were 0.0021 nM and 0.007 nM, respectively. In assay [2], the “surviving replicon cells (crystal violet staining)” value is “almost entirely prevented replicon cell survival”.
As for `COC(=O)N[C@H](C(=O)N1CCC[C@H]1c1nc(-c2ccc(-c3ccc(-c4c[nH]c([C@@H]5CCCN5C(=O)[C@@H](NC(=O)OC)C(C)C)n4)cc3)cc2)c[nH]1)C(C)C` [Daclatasvir, reference compound], the values for the EC50 (in assay [1]; with GT1a-H77 replicon) were 0.02 nM and 0.06 nM, respectively.
